Measured values published in patent US4129643A, “Method for rapid screening of teratogenic agents” (priority 1976, dated 1978).

Key:
Assay type in all cases: cell-based
test cells = assay: screening test for teratogenic activity with cells cultured in amniotic fluid; conditions: tests on two teratogens in the mouse
Text: According to my invention I provide a process for screening a compound for teratogenic activity comprising administering the compound being screened to a test animal, removing amniotic fluid from the test animal, using the amniotic fluid removed as part or all of a cell culture medium, and measuring the effect on cell properties of cells grown in the culture medium containing the amniotic fluid from the test animal as compared with the use of amniotic fluid from an otherwise identical control animal that has not had the compound being screened administered to it.
(1) Amniotic fluid is used as cell culture medium or as an additive to a standardised cell culture medium in order to test the substance as processed by the maternal organism. Amniotic fluids either from animals of diverse genotype or of selected genotypes, as required, are pooled. […]
(2) A standardised cell suspension is innoculated into cultures and grown during log phase in the medium containing amniotic fluid from a control or test series as described above. […] Lens epithelium has been used since I have published evidence that quantitative regulation of specific syntheses is of especial importance in this orgen and the assay system described in (3) below detects changes in mitotic rate, cell mass, and growth conditions, cell surface modification and genetically determined pathology. […]

lens epithelial cells [1] = assay: protein profile (accumulated protein, stained isoelectric focussing gels) of lens epithelial cells grown in amniotic fluid from injected mice; conditions: diluted to 50% with culture medium; for changes in the protein profile (bands of stained gels): Coomassie Blue stained gels, densitometry
Procedure: Similar densitometry is made of the autoradiograph of the gels. Each analysis can be done on a culture grown from a cell suspension of as little as 1-4.5 × 10^5 cells, but can be scaled up or down as required.
(§1) Mice of numerous genotypes were taken from amongst all the more prolific strains available from the Institute of Animal Genetics Mouse House (Mouse News Letter, 1974). They were mated and the pregnancies dated by vaginal plug. They were injected once, subcutaneously, with a teratogen, between 12-15 days of gestation in order to obtain a large volume of clear amniotic fluid. 1-2 hours after the injection the mice were killed by cervical dislocation, the uteri removed and the amniotic fluid harvested under sterile conditions, passed through a Millex filter and stored at -20°C. Control amniotic fluids were obtained from uninjected mice of a similar range of genotypes and stages of gestation. Mice were injected with double the teratogenic doses used for 6-aminonicotinamide by Pinsky and Fraser (Biol. Neonat., 1,106-112 (1959)) and for sodium acetyl salicylate by Larsson and Erickson (Acta. Paed. Scand., 55, 569-576, )1976)), but the amniotic fluids were diluted to 50% with culture medium for use, thus giving a final concentration similar to that used by these authors. Five batches of pooled amniotic fluid of each kind were prepared in this way and tested in separate culture experiments.
Cultures of dissociated lens epithelial cells were prepared according to Okada, Eguchi and Takeichi (Dev. Growth Diffn., 13,323-326 (197l)), and plated at 4.5 × 10^5 cells per dish in 3.5 ml Earles MEM (Biocult) containing 6% foetal calf serum (Gibco). The medium was changed at 2 days, and after 4 days, when these cells were in log phase, the medium was replaced by 1 ml of medium and 1 ml of amniotic fluid. After two further days the cells were labelled for 4 to 5 hours with ^14 C mixed amino acids (Amersham) at 20 μCi/ml. The cultures were washed several times in Hanks solution, harvested with a miniature plastic scraper and taken up into a drop of 8M urea containing 10 mM β-mercaptoethanol. The drop was frozen and thawed three times to liberate the cell contents. When required, the living cells were examined with a Gilbert and Siebert inverted phase microscope.
Polyacrylamide gels containing ampholines according to Wrigley (Science Tools, 15, 17-23, (1968)) were modified to contain 6M urea, 10mM β-mercaptoethanol, and an ampholine mixture giving a gradient from pH 3 to 10, flattened in the region of 4.5 to 7.0. Such gels give especially high resolution for crystallins and are now routinely used in my laboratory. 20 μl of cell preparation was added to each gel which was electrofocussed overnight according to Wrigley (loc. cit.). […]

lens epithelial cells [2] = assay: morphology of lens epithelial cells grown in amniotic fluid from injected mice; conditions: amniotic fluid from mice injected once s.c. at 12-15 days gestation, harvested 1-2 h after; diluted to 50% with culture medium; two days' culture
Procedure: as §1, with “experiments. […]” for “experiments.”

| SMILES | discrimination of treated cells from control cells (test cells) | other quantitative changes in the protein profile (lens epithelial cells [1]) | changes in the protein profile (bands of stained gels) (lens epithelial cells [1]) | cell outline / morphology (lens epithelial cells [2]) |
| --- | --- | --- | --- | --- |
| NC(=O)c1ccc(N)nc1 [6-aminonicotinamide] | distinguish reliably and specifically between the cells treated by each of these teratogens, and control cells | some other, less striking quantitative changes were also recorded | one band being missing and one exaggerated | modified cell outline |
| CC(=O)Oc1ccccc1C(=O)O [sodium acetyl salicylate] | distinguish reliably and specifically between the cells treated by each of these teratogens, and control cells | Other quantitative changes were also observed | lacking in the band which was enhanced by 6-aminonicotinamide treatment | normal in morphology |
